According to patent US10478404B2, “Materials, methods and devices for altering cell reactivity” (The Arizona Board of Regents on behalf of The University of …, priority 2014, dated 2019):

Experiments:
[1] = tested on: gel-filtered platelets (GFP); experiment: Platelet activity state (PAS) assay of gel-filtered platelets under constant shear (cone-plate viscometer); assay type: cell-based, Human
Protocol: (§1) Human blood was collected from healthy volunteers in citrated buffers. Platelet rich plasma (PRP) and gel-filtered platelets (GFP) were isolated as previously described (Girdhar, et al., PLOS One, 7(3):e32463 (2012)) then treated with percentages of DMSO (v/v) ranging from 0.95%-60%. Platelet activity state (PAS) assay of GFP sheared at 30 dyne/cm^2 via con-plate viscometer and light transmission aggregometry (LTA) of PRP and GFP induced by ADP and collagen were performed.
In some experiments, varying percentages of DMSO were added to platelets, which were then subjected to defined sheer.

platelets [2] = experiment: Hyper-shear exposure via platelet hammer device (PAS); assay type: cell-based, Human; conditions: 0.95% (v/v) DMSO pre-incubation; shear 100-1000 dynes/cm^2; FIG. 1B
Protocol: To further extend the above observation, platelets were pre-incubated with DMSO, at 0.95% (v/v), and then subjected to much higher levels of shear via a platelet hammer device, i.e. shear from 100-1000 dynes/cm^2. […] These levels correlate with the levels experienced in VADs and other high shear MCS devices.

platelets [3] = experiment: Scanning electron microscopy (SEM) of fixed DMSO-treated platelets; assay type: cell-based, Human; conditions: 5% and 10% DMSO
Protocol: (§2) Light transmission aggregometry (LTA) was performed to detect platelet desensitization using arachidonic acid, ADP, collagen, epinephrine, and ristocetin. Platelets were fixed and visualized at the varying DMSO treatments under scanning electron microscopy (SEM). […] DMSO has no effect on ristocetin-induced platelet aggregation.

[4] = tested on: Platelet rich plasma (PRP); experiment: Light transmission aggregometry (LTA) with chemical agonists; assay type: cell-based, Human
Protocol: as §1, §2
To examine whether membrane modulation impacted biochemical as well as shear-mediated platelet activation the following study was performed. Platelet rich plasma (PRP) was pre-incubated with varying concentrations of DMSO. PRP was then exposed to a variety of chemical agonists (ADP, Col, EpPi, Arac. Acid, or none (control)).

GFP = experiment: Shear-mediated platelet activation with actin stabilizing/depolymerization drugs; assay type: cell-based, human; conditions: 70 dyn shearing force; compared to control cells with 0.1% DMSO; FIG. 2B
Protocol: Platelets were collected from human volunteers and PRP obtained as described above. Platelet-activation was determined (biochemical vs. shear mediated) was determined within the context of modulation of intracellular microfilament action, as measured by the effect on actin was determined. Actin is a globular multi-functional protein that forms microfilaments. It is found in almost all eukaryotic cells where it may be present at concentrations of over 100 μM. An actin protein's mass is roughly 42-kDa and it is the monomeric subunit of two types of filaments in cells: microfilaments, one of the three major components of the cytoskeleton, and thin filaments, part of the contractile apparatus in muscle cells. It can be present as either a free monomer called G-actin (globular) or as part of a linear polymer microfilament called F-actin (filamentous).
Whole blood aggregation was determined in the presence of ADP in cells treated with cytochalasin B (FIG. 2A). Cystochalasin B inhibits both the rate of actin polymerization and the interaction of actin filaments in solution. Maclean-Fletcher, Cell, 20(2):329-41 (1980). The effect of actin stabilizing/depolymerization drugs (Jasplakinolide and cystochalasin B) in shear-mediated platelet activation was measured in GFP. […]

platelets [5] = experiment: Shear-induced platelet activation (PAS) with membrane modulators; assay type: cell-based, human
Protocol: Platelets were obtained as previously described and the effect of […] on biochemical or shear-induced (70 dyn shearing force) platelet activation was determined. Membrane modulation was effected using hydrophobic molecules such as Docosahexaenoic acid (DHA) and Eicosapentaenoic acid (EPA), the structures of which are shown below.
Shear-mediated platelet activation was also measured in the presence of DHA, EPA and wild salmon oil (FIG. 4B-C).
Shear-mediated and biochemical mediated platelet activation was also measured in the presence of the amphipathic molecules, cholesterol and lecithin. Cholesterol adds firmness and integrity to the plasma membrane and prevents it from becoming overly fluid i.e., cholesterol helps the membrane maintain its fluidity. In the studies including cholesterol, cholesterol-treated cells were compared with cells treated with 0.1% DMSO.

## C[S+](C)[O-] [DMSO, dimethysulfoxide]
[1]; 5% DMSO, 5 min of 30 dyne/cm^2
  protection of platelets from shear-induced activation in comparison to control (PAS assay): up to 90%
[1]; 10 min of 30 dyne/cm^2
  DMSO percentage giving the same level of protection at longer shear exposure: 10%
[1]; DMSO range tested 0.95%-60%
  most effective DMSO percentage in protecting platelets from activation by constant shear stress and aggregation by chemical agonists: 5 % (v/v)
[1]; shear 30-70 dynes/cm^2, FIG. 1A
  DMSO concentration with best protective effect: 1-5%
Platelets [2]
  tolerance of hyper shear: able to tolerate much higher levels of sheer
Platelets [3]
  filopodia (SEM of platelets): significant reduction
[4]
  ristocetin-induced platelet aggregation: no effect
[4]; 0.95% to 10% DMSO
  collagen-induced PRP aggregation: limited effect
  epinephrine-induced PRP aggregation: limited effect
[4]; 5% DMSO
  arachidonic acid-induced aggregation: inhibition
[4]; 5% DMSO-pretreated platelets
  maximal aggregation (LTA): lower maximal aggregation
  platelet aggregation rate (LTA): slower platelet aggregation rate
[4]; 10% DMSO
  ADP-induced aggregation: inhibition
[4]; PRP pre-incubated with varying DMSO, ADP, Col, Epi, Arac. Acid, inhibitory peak at higher DMSO concentrations than for shear, FIG. 1C
  agonist-mediated platelet activation: reduction of agonist-mediated activation

## C/C1=C\[C@H](C)C[C@H](C)OC(=O)C[C@H](c2ccc(O)cc2)NC(=O)[C@@H](Cc2c(Br)[nH]c3ccccc23)N(C)C(=O)[C@H](C)NC(=O)[C@@H](C)C1 [Jasplakinolide]
GFP
  shear-mediated platelet activation over time: less activation over time

## CC(C)CCC[C@@H](C)[C@H]1CC[C@H]2[C@@H]3CC=C4C[C@@H](O)CC[C@]4(C)[C@H]3CC[C@]12C [cholesterol]
Platelets [5]; 20 μM and 200 μM cholesterol, 30 dyn and 70 dyn, compared with 0.1% DMSO, FIG. 4D-E
  shear-induced platelet activation: reduces shear-induced platelet activation

## lecithin
Platelets [5]; Example 4 data
  platelet sensitivity to shear stress: increase platelet sensitivity to shear stress
Platelets [5]; lecithin 25 ug/ml, 30 dyn, GFP, compared to controls, FIG. 4G
  shear-induced platelet activation as measured by PAS: increases
